# Results as given in patent publication US20220296535A1, “Antibacterial Dosage Regime Using Cannabinoids” (Botanix Pharmaceuticals Limited, priority 2019, published 2022).
# Like-named read-outs stand apart in the source and are kept apart here.
# How the values were obtained:
# [1] = tested on: S. aureus MSSA (26 strains); test: MIC50/MIC90 micro-broth dilution, MSSA strains; conditions: Staphylococcus aureus, MSSA
# [2] = tested on: S. aureus MRSA (106 strains); test: MIC50/MIC90 micro-broth dilution, MRSA strains; format: cell-based, Staphylococcus aureus; conditions: for Staphylococcus aureus MRSA MIC distribution, number of strains: Table 19
# [3] = tested on: A. acidipropionici ATCC 25562; test: Anaerobic MIC micro-broth dilution; format: cell-based, Acidipropionibacterium acidipropionici; conditions: A. acidipropionici ATCC 25562, anaerobic chamber, BHI, 48 h
# [4] = tested on: 132 strains of Staphylococcus aureus (106 MRSA and 26 MSSA strains); test: MIC50/MIC90 micro-broth dilution, all strains
# [5] = tested on: S. aureus ATCC 43300; test: Anaerobic MIC micro-broth dilution; format: cell-based, Staphylococcus aureus; conditions: S. aureus ATCC 43300, anaerobic chamber, BHI, 48 h
# [6] = tested on: Staphylococcus aureus ATCC 43300 MRSA; test: Antibacterial time kill assay; format: cell-based; conditions: for MIC: Staphylococcus aureus
# Experimental: The time-kill method is based on CLSI guideline M26-A (NCCLS, 1999).
# The collaborator supplied sample as dry material. A stock solution was prepared at 10 mg/mL in neat DMSO (11.2 mg in 1.12 mL of DMSO). The highest concentration tested in the assay was 64 μg/mL and 2% DMSO as a final concentration using 1/20 dilution to achieve these concentrations.
# Time kill plates: CBD was plate across all the rows and serially diluted in Cation-adjusted Mueller Hinton Broth (CaMHB; BD, Cat. No. 212322) two-fold across the wells of polystyrene (PS) 96-well plates (Corning; Cat. No. 3370), plated in duplicate. Each row were taken as a time point, where row A, 0 h; row B, 1 h; row C, 2 h; row D, 3 h; row E, 4 h; row F, 6 h and row G, 24 h.
# Also, control plates were made. CBD and standard antibiotics were serially diluted in Cation-adjusted Mueller Hinton Broth (CaMHB; BD, Cat. No. 212322) two-fold across the wells of polystyrene (PS) 96-well plates (Corning; Cat. No. 3370), plated in duplicate.
# The tested bacteria was Staphylococcus aureus ATCC 43300 MRSA (ID GP_020:02).
# Charcoal plate PS 96-well plates: 50 μL of sterile activated charcoal suspension (25 mg/ml) were added into row A. 90 μL of 0.9% sterile saline were added to subsequent rows.
# Bacteria (Table 2.6) was cultured in CaMHB at 37° C. overnight, then diluted 40-fold and incubated at 37° C. for a further 2-3 h. The resultant mid-log phase cultures were diluted in CaMHB and added to each well of the control and time kill 96-well plates to give a final cell density of 5×10^5 CFU/mL, and a final compound concentration range of 0.03-64 μg/mL. The plates were covered and incubated at 37° C. for 24 h.
# At selected time-points (0, 1, 2, 3, 4, 6 and 24 h), 50 μL of culture per-well was transferred from the time kill plate into the first row of charcoal plate (containing the charcoal suspension) to neutralise the compound. After mixing well, 10 μL were transferred from row A to row B to give a 1:10 dilution, this step was repeated until 1:10'000 (row E). […]
# MICs and the time kill results were determined visually at 24 hr incubation. […]
# [7] = tested on: C. granulosum ATCC 25564; test: Anaerobic MIC micro-broth dilution; format: cell-based, Cutibacterium granulosum; conditions: C. granulosum ATCC 25564, anaerobic chamber, BHI, 48 h
# [8] = Protein binding inferred from loss of activity in 50% human serum; format: in vitro ADME; conditions: assuming 3% free responsible for activity
# Experimental: The compounds were serially diluted in mixture of 50% of human serum (Sigma; Cat. No. H3667-100ML) along with 50% Cation-adjusted Mueller Hinton Broth (CaMHB; BD, Cat. No. 212322) two-fold across the wells of polystyrene (PS) 96-well plates (Corning; Cat. No. 3370), plated in duplicate. All plates had flat bottom wells and were covered with low-evaporation lids.
# All control antibiotics gave inhibitory values within the expected ranges.
# [9] = tested on: P. acnes ATCC 6919; test: Anaerobic MIC micro-broth dilution; format: cell-based, Cutibacterium acnes (formerly Propionibacterium acnes); conditions: P. acnes ATCC 6919, anaerobic chamber, BHI, 48 h
# [10] = listed as Cannabidiol (Batch 2)
compound,measurement,setting,value
"C=C(C)C1CCC(C)=CC1c1c(O)cc(CCCCC)cc1O (stereo not drawn) [Cannabidiol, 2-[3-methyl-6-(1-methylethenyl)-2-cyclohexen-1-yl]-5-pentyl-1,3-benzenediol]",MIC50,[1],2 µg/mL
same,MIC90,[1],2 µg/mL
same,MIC50,"[2]; Staphylococcus aureus, S. aureus MRSA, read-out: MIC 50",2 µg/mL
same,MIC90,"[2]; Staphylococcus aureus, S. aureus MRSA, read-out: MIC 90",4 µg/mL
same,"Staphylococcus aureus MRSA MIC distribution, number of strains",[2]; MIC 0.015,0
same,"Staphylococcus aureus MRSA MIC distribution, number of strains",[2]; MIC 0.03,0
same,"Staphylococcus aureus MRSA MIC distribution, number of strains",[2]; MIC 0.06,0
same,"Staphylococcus aureus MRSA MIC distribution, number of strains",[2]; MIC 0.5,0
same,"Staphylococcus aureus MRSA MIC distribution, number of strains",[2]; MIC 1,4
same,"Staphylococcus aureus MRSA MIC distribution, number of strains",[2]; MIC 2,82
same,"Staphylococcus aureus MRSA MIC distribution, number of strains",[2]; MIC 4,18
same,"Staphylococcus aureus MRSA MIC distribution, number of strains",[2]; MIC 8,1
same,"Staphylococcus aureus MRSA MIC distribution, number of strains",[2]; MIC 16,0
same,"Staphylococcus aureus MRSA MIC distribution, number of strains",[2]; MIC 32,0
same,MIC,[3],active
same,MIC,"[3]; Acidipropionibacterium acidipropionici, ATCC25562, read-out: MIC",0.5 µg/mL
same,"Staphylococcus aureus spp. MIC distribution, number of strains",[4]; MIC 0.015 μg/mL,0
same,"Staphylococcus aureus spp. MIC distribution, number of strains",[4]; MIC 0.03 μg/mL,0
same,"Staphylococcus aureus spp. MIC distribution, number of strains",[4]; MIC 0.06 μg/mL,0
same,"Staphylococcus aureus spp. MIC distribution, number of strains",[4]; MIC 0.5 μg/mL,0
same,"Staphylococcus aureus spp. MIC distribution, number of strains",[4]; MIC 1 μg/mL,6
same,"Staphylococcus aureus spp. MIC distribution, number of strains",[4]; MIC 2 μg/mL,106
same,"Staphylococcus aureus spp. MIC distribution, number of strains",[4]; MIC 4 μg/mL,18
same,"Staphylococcus aureus spp. MIC distribution, number of strains",[4]; MIC 8 μg/mL,1
same,"Staphylococcus aureus spp. MIC distribution, number of strains",[4]; MIC 32 μg/mL,0
same,MIC range,[4]; S. aureus spp. ALL,0.25 to 8 µg/mL
same,MIC50,[4]; Staphylococcus aureus,2 µg/mL
same,MIC90,[4]; Staphylococcus aureus,4 µg/mL
same,MIC,"[4]; Staphylococcus aureus, MRSA|MSSA, read-out: MIC across the 132 strains tested",2 to 4 µg/mL
same,MIC,[5]; [10],2/1
same,MIC,[5]; listed as Cannabidiol (CBD),active
same,MIC,"[6]; CaMHB, 24 hr, read-out: CBD control MIC of the day",2 µg/mL
same,MIC,[6]; read-out: previous MIC data,1 to 2 µg/mL
same,treatment time after which bactericidal,[6]; concentrations over or equal to the MIC value,3 h
same,MIC,[7]; [10],4/2
same,MIC,[7]; listed as Cannabidiol (CBD),active
same,fraction unbound,[8],< 0.03
same,MIC,[9]; [10],2/1
same,MIC,[9]; listed as Cannabidiol (CBD),active
